Test results: article PMC7717710, “Synthesis, computational studies and assessment of in vitro inhibitory activity of umbelliferon-based compounds against tumour-associated carbonic anhydrase isoforms IX and XII” (Journal of Enzyme Inhibition and Medicinal Chemistry, 2020)
Read-outs that look alike come from different tables or passages of the source.

Tests used:
[1] = molecular target: T1, hCA XII (Homo sapiens, UniProt O43570); assay: stopped-flow CO2 hydrase assay, hCA XII; type: biochemical; conditions: for Ki: recombinant hCA XII, stopped-flow CO2 hydration, 15 min preincubation, errors ± 10%, 3 assays, read-out: Inhibition data (Ki) hCA XII
T1 construct: made in house
Description: (§1) An applied photophysics stopped-flow instrument has been used for assaying the CA catalysed CO2 hydration activity. Phenol red (at a concentration of 0.2 mM) has been used as an indicator, working at the absorbance maximum of 557 nm, with 10–20 mM Hepes (pH 7.5) or Tris (pH 8.3) as buffers, and 20 mM Na2SO4 or 20 mM NaClO4 (for maintaining constant the ionic strength), following the initial rates of the CA-catalysed CO2 hydration reaction for a period of 10–100 s. The CO2 concentrations ranged from 1.7 to 17 mM for the determination of the kinetic parameters and inhibition constants. For each inhibitor, at least six traces of the initial 5-10% of the reaction have been used for determining the initial velocity. The uncatalyzed rates were determined in the same manner and subtracted from the total observed rates. Stock solutions of inhibitor (10 mM) were prepared in distilled-deionized water and dilutions up to 0.01 nM were done thereafter with distilled-deionized water. Inhibitor and enzyme solutions were preincubated together for 15 min at room temperature prior to assay to allow for the formation of the E–I complex. The inhibition constants were obtained by non-linear least-squares methods using PRISM 3, as reported earlier and represent the mean from at least three different determinations. CA isoforms were recombinant ones obtained as reported earlier by this group.
(§2) This small series of coumarin derivatives 7–11, 15–17 were subjected to the stopped-flow CO2 hydrase assays to evaluate the binding affinity against the tumour-associated hCA IX and XII over ubiquitous isoforms hCA I and II.

[2] = molecular target: T2, hCA II (Homo sapiens, UniProt P00918); assay: stopped-flow CO2 hydrase assay, hCA II; type: biochemical; conditions: recombinant hCA II; stopped-flow CO2 hydration; 15 min preincubation; errors ± 10%, 3 assays; read-out: Inhibition data (Ki) hCA II
T2 construct: made in house
Description: as §1, §2

[3] = molecular target: T3, hCA IX (Homo sapiens, UniProt Q16790); assay: stopped-flow CO2 hydrase assay, hCA IX; type: biochemical; conditions: recombinant hCA IX; stopped-flow CO2 hydration; 15 min preincubation; errors ± 10%, 3 assays; read-out: Inhibition data (Ki) hCA IX
T3 construct: made in house
Description: as §1, §2

[4] = molecular target: T4, hCA I (Homo sapiens, UniProt P00915); assay: stopped-flow CO2 hydrase assay, hCA I; type: biochemical; conditions: recombinant hCA I; stopped-flow CO2 hydration; 15 min preincubation; errors ± 10%, 3 assays; read-out: Inhibition data (Ki) hCA I
T4 construct: made in house
Description: as §1, §2

[5] = molecular target: T2, hCA II; design: method as in PMID 29197732; conditions: reference compounds; read-out: Inhibition data (Ki) hCA II; cited from earlier work
[6] = molecular target: T4, hCA I; design: method as in PMID 29197732; conditions: reference compounds; read-out: Inhibition data (Ki) hCA I; cited from earlier work

T4 sequence (P00915 whole entry): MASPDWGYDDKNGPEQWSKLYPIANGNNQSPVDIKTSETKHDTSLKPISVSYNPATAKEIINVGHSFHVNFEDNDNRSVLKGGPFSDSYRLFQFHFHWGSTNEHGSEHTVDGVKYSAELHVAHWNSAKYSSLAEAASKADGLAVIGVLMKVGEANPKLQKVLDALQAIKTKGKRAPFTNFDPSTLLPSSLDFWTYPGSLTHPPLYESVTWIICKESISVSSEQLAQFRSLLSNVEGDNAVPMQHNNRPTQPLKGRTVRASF
T1 sequence (O43570 25-354): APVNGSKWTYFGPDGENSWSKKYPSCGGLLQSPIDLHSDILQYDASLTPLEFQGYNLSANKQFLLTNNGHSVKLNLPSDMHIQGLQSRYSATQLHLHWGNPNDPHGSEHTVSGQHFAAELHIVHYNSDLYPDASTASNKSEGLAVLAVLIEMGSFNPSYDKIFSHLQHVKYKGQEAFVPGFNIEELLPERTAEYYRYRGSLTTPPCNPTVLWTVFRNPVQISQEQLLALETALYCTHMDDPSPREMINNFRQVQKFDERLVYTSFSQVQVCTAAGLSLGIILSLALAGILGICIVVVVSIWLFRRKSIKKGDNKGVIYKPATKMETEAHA

Ki [1]	Ki [2]	Ki [3]	Ki [4]	melting point	fold less active/efficient towards hCA XII than parent compound 3 ([1]; ratio of Ki values versus compound 3)	SMILES	Ki [5]	Ki [6]
24.9 nM	> 10000 nM	177 nM	> 10000 nM			CC(=O)c1c(O)ccc2c(-c3ccccc3)cc(=O)oc12 [compound 10, 8-Acetyl-7-hydroxy-4-phenyl-2H-chromen-2-one]		
				303 to 305 °C		O=c1cc(-c2ccc([N+](=O)[O-])cc2)c2ccc(O)c(Cl)c2o1 [compound 16, 8-Chloro-7-hydroxy-4-(4-nitrophenyl)-2H-chromen-2-one]		
32 nM	> 10000 nM	261 nM	> 10000 nM	214 to 215 °C		O=c1cc(-c2ccccc2)c2ccc(O)c(Cl)c2o1 [compound 15, 8-Chloro-7-hydroxy-4-phenyl-2H-chromen-2-one]		
29.3 nM	> 10000 nM	180 nM	> 10000 nM	313 to 315 °C		Nc1ccc(-c2cc(=O)oc3c(Cl)c(O)ccc23)cc1 [compound 17, 4-(4-aminophenyl)-8-chloro-7-hydroxy-2H-chromen-2-one]		

Further lines, the molecule ahead of its results:

SMILES	Ki [1]	Ki [2]	Ki [3]	Ki [4]	melting point	fold less active/efficient towards hCA XII than parent compound 3 ([1]; ratio of Ki values versus compound 3)	Ki [5]	Ki [6]
CC(=O)Oc1ccc2c(-c3ccccc3)cc(=O)oc2c1 [compound 7, 2-oxo-4-phenyl-2H-chromen-7-yl acetate]	734 nM	> 10000 nM	56.2 nM	> 10000 nM	129 to 131 °C			
O=C(Oc1ccc2c(-c3ccccc3)cc(=O)oc2c1)c1ccccc1 [compound 9, 2-Oxo-4-phenyl-2H-chromen-7-yl benzoate]	385 nM	> 10000 nM	21.8 nM	> 10000 nM				
CCC(=O)Oc1ccc2c(-c3ccccc3)cc(=O)oc2c1 [compound 8, 2-Oxo-4-phenyl-2H-chromen-7-yl propionate]	523 nM	> 10000 nM	97.8 nM	> 10000 nM	172 to 174 °C			
CCC(=O)c1c(O)ccc2c(-c3ccccc3)cc(=O)oc12 [compound 11, 7-Hydroxy-4-phenyl-8-propanoyl-2H-chromen-2-one]	868 nM	> 10000 nM	3040 nM	> 10000 nM	172 to 174 °C	10 fold		
Cc1c(O)ccc2c(-c3ccc(N)cc3)cc(=O)oc12 [compound 4, 4-(4-aminophenyl)-7-hydroxy-8-methyl-2H-chromen-2-one]							> 10000 nM	> 10000 nM
O=c1cc(-c2ccccc2)c2ccc(O)cc2o1 [compound 3, 7-hydroxy-4-phenyl-2H-chromen-2-one]							> 10000 nM	> 10000 nM
